From patent US20230255943A1, “MMP-9 AND MMP-12 INHIBITION FOR TREATING SPINAL CORD INJURY OR RELATED INJURY TO NEUROLOGICAL TISSUE” (The University of Birmingham, priority 2020, published 2023) come the findings set out here.

The subject of test [1] is rats with DC crush injury. The test can be described thus: Ladder crossing (locomotor function) in rat DC model. Type of test: in vivo. Particulars: over 6 weeks. The protocol: The efficacy of oral AZD3342 in the DC injury model in adult Sprague-Dawley rat was also assessed. Animals were divided into 6 groups: (1), Sham (control); (2), DC crush injury+Vehicle; (3), DC crush injury+15 mg/kg AZD3342; (4), DC crush injury+75 mg/kg […]; (5), DC crush injury+375 mg/kg AZD3342; and (6), DC crush injury+Melatonin. Animals were dosed twice daily with oral AZD3342 or vehicle with the experimenters masked to the treatment conditions. These experiments were performed with n=6 rats/group and repeated on 2-3 independent occasions (total n=12-18 rats/group/test).
Functional testing after DC lesion and treatment was carried out as described previously (N. D. Fagoe, C. L. Attwell, R. Eggers, L. Tuinenbreijer, D. Kouwenhoven, J. Verhaagen, M. R. Mason, Evaluation of Five Tests for Sensitivity to Functional Deficits following Cervical or Thoracic Dorsal Column Transection in the Rat. PLoS One 11, e0150141 (2016)). […]
Horizontal ladder test: This tests the animals locomotor function and is performed on a 0.9-meter-long horizontal ladder with a diameter of 15.5 cm and randomly adjusted rungs with variable gaps of 3.5-5.0 cm. Animals were assessed traversing the ladder and the left and right rear paw slips were recorded along with the total number of steps and the mean error rate as: the number of slips/total number of steps.

Another test concerns IL-1β, TNF-α and IL-6. Briefly: qRT-PCR of proinflammatory pain markers after DC injury in mice. Type of test: in vivo, mouse. As to conditions: for injury-induced rise of proinflammatory pain markers IL-1β, TNF-α and IL-6: 3d after DC injury. Here is the method: For oral delivery of AZD1236, n=6 adult male C57BL6 mice/group (Charles River, Margate, UK) were randomly allocated to either: (1), Sham (control; partial laminectomy but no DC crush injury); (2), DC crush injury+vehicle (partial laminectomy followed by DC crush injury and injection of vehicle); (3), DC crush injury+100 mg/kg AZD1236; (4), DC crush injury+200 mg/kg AZD1236; and (5), DC crush injury+300 mg/kg AZD1236. For intrathecal (it) delivery of AZD1236, adult male C57BL6 mice (25-30 g) (Charles River, Margate, UK) were randomly allocated to either: (1), Sham (control; partial laminectomy but no DC crush injury); (2), DC crush injury+vehicle (partial laminectomy followed by DC crush injury and injection of vehicle); (3), DC crush injury+2.5 mg/kg AZD1236; (4), DC crush injury+5 mg/kg AZD1236; and (5), DC crush injury+10 mg/kg AZD1236. For intrathecal delivery an indwelling atlanto-occipital intrathecal catheter was inserted into the intrathecal space, as described previously (F. A. Oladosu, B. P. Ciszek, S. C. O'Buckley, A. G. Nackley, Novel intrathecal and subcutaneous catheter delivery systems in the mouse. J Neurosci Methods 264, 119-128 (2016)). Briefly, with mice in the sternal recumbency a small incision was made at the nape of the neck followed by detachment of the muscles on either side of the external occipital crest to expose the A-O membrane. The membrane was incised and a 6 cm Alzet mouse intrathecal catheter (Alzet, Cupertino, Calif., USA) and polyurethane segments were gently guided 2.5 cm into the intrathecal space. […]
DC crush injury was administered bilaterally at the T8 vertebral level as described previously (S. Surey, M. Berry, A. Logan, R. Bicknell, Z. Ahmed, Differential cavitation, angiogenesis and wound-healing responses in injured mouse and rat spinal cords. Neuroscience 275, 62-80 (2014); M. L. Read, S. Mir, R. Spice, R. J. Seabright, E. L. Suggate, Z. Ahmed, M. Berry, A. Logan, Profiling RNA interference (RNAi)-mediated toxicity in neural cultures for effective short interfering RNA design. J Gene Med 11, 523-534 (2009)). […]

The structures appear in SMILES notation.

Regarding `C[C@]1(CS(=O)(=O)N2CCC(Oc3ccc(Cl)cn3)CC2)NC(=O)NC1=O` [AZD3342, (5S)-5-[4-(5-chloro-pyridin-2-yloxy)-piperidine-1-sulfonylmethyl]-5-methylimidazolidine-2,4-dione], the “locomotor function (ladder crossing)” value in test [1] is given as “significantly improved”.

Consider `C[C@]1(CS(=O)(=O)N2CC=C(C#Cc3cnc(C4CC4)nc3)CC2)NC(=O)NC1=O` [AZD1236], for which the “injury-induced rise of proinflammatory pain markers IL-1β, TNF-α and IL-6” value in the test with IL-1β, TNF-α and IL-6 (intrathecal, 5 mg/kg) is “reduced them to sham-treated levels”; with IL-1β, TNF-α and IL-6 (oral, 200 mg/kg) it was “reduced them to sham-treated levels”. In addition, the “proinflammatory cytokines, 24-h delayed treatment” value with IL-1β, TNF-α and IL-6 (optimal doses, 24 h delay vs immediate) is “equally as effective as immediate delivery”.
